This note sets out measurements from paper PMC8981563 (RSC Advances, 2022).

Usually EC50 stands for the concentration giving half of the maximal effect. High values mean a need for much substance, low ones an effect from little substance.

Molecules are shown by their SMILES.

The assay concerns the target T1, human GPR120 (Homo sapiens, UniProt Q5NUL3).
T1 sequence (Q5NUL3 1-361): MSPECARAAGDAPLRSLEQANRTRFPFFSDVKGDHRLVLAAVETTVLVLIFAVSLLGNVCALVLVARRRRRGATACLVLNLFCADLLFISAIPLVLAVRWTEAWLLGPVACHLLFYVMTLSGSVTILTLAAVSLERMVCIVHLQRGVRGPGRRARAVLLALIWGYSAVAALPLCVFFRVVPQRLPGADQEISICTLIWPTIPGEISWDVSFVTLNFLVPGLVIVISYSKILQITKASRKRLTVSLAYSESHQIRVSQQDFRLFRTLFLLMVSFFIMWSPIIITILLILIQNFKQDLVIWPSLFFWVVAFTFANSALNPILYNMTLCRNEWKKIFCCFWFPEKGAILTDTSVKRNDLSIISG
Briefly: Ca2+ influx activity of CHO cells expressing human GPR120. The class given is cell-based.
Consider `Cc1ccc(-c2ccc(F)cc2COc2ccc(CC3SC(=O)NC3=O)cc2)cc1` (stereo not shown) [Compound 1g, 5-(4-((4-Fluoro-4′-methyl-[1,1′-biphenyl]-2-yl)methoxy)benzyl)thiazolidine-2,4-dione], for which the midpoint of the response, the EC50, lay at 182 ± 13.2 nM.

As to `Cc1ccc(-c2ccc(F)cc2COc2ccc(CC3SC(=O)NC3=O)c(C)c2)cc1` (stereo not shown) [Compound 2g, 5-(4-((4-Fluoro-4′-methyl-[1,1′-biphenyl]-2-yl)methoxy)-2-methylbenzyl)thiazolidine-2,4-dione], a half-maximal response (EC50) required 134 ± 11.8 nM.

Take `COc1cc(OCc2cc(F)ccc2-c2ccc(C)cc2)ccc1CC1SC(=O)NC1=O` (stereo not shown) [Compound 3g, 5-(4-((4-Fluoro-4′-methyl-[1,1′-biphenyl]-2-yl)methoxy)-2-methoxybenzyl)thiazolidine-2,4-dione]: a half-maximal response (EC50) required 122 ± 13.1 nM.

`Cc1ccc(-c2ccc(F)cc2COc2ccc(CC3SC(=O)NC3=O)cc2C)cc1` (stereo not shown) [Compound 6g, 5-(4-((4-Fluoro-4′-methyl-[1,1′-biphenyl]-2-yl)methoxy)-3-methylbenzyl)thiazolidine-2,4-dione] registered an EC50 of 461 ± 36.1 nM.

For the compound `Cc1ccc(-c2ccc(F)cc2COc2ccc(CC3SC(=O)NC3=O)cc2F)cc1` (stereo not shown) [Compound 7g, 5-(3-Fluoro-4-((4-fluoro-4′-methyl-[1,1′-biphenyl]-2-yl)methoxy)benzyl)thiazolidine-2,4-dione], the response was half-maximal at 276 ± 20.5 nM (EC50). This EC50 is about 1.7-fold lower than that of the compound before.

`Cc1ccc(-c2ccc(F)cc2COc2ccc(CC3SC(=O)NC3=O)c(F)c2F)cc1` (stereo not shown) [Compound 8g, 5-(2,3-Difluoro-4-((4-fluoro-4′-methyl-[1,1′-biphenyl]-2-yl)methoxy)benzyl)thiazolidine-2,4-dione] showed an EC50 of 142 ± 12.5 nM.

For the compound `Cc1ccc(-c2ccc(F)cc2COc2cc(F)c(CC3SC(=O)NC3=O)c(F)c2)cc1` (stereo not shown) [Compound 9g, 5-(2,6-Difluoro-4-((4-fluoro-4′-methyl-[1,1′-biphenyl]-2-yl)methoxy)benzyl)thiazolidine-2,4-dione], the response was half-maximal at 137 ± 16.3 nM (EC50).
